These results are taken from patent US20010014444A1, “Gene regulator fusion proteins and methods of using the same for determining resistance of a protein to a drug targeted thereagainst” (priority 1998, published 2001).

Each structure is given as a SMILES string.

The subject of test [1] is inactive HIV protease (164) [D25E] (pL448.2). The test is described as follows: Blue/white colony color assay, HIV-PR-LacI fusion protein / β-galactosidase reporter two plasmid system. In kind it is cell-based. The settings on record: E. coli containing pL448.2; Bluogal indicator media with arabinose inducer, supplemented with indinavir at various concentrations; also blue without indinavir.
Procedure: Three E. coli strains, each containing a reporter plasmid for expression of β-galactosidase, and a HIV-PR-LacI expression plasmid for expression of a HIV-PR-LacI fusion protein, were tested using the blue/white color assay of the present invention. These strains were designed to be identical except for mutations within the HIV-PR regions, as set forth below:
Plasmid pL446.1 expresses a fusion protein containing HIV-PR and the LacI gene repressor. Expression is mediated by the ARAB promoter/operator and expression is induced by addition of arabinose sugar to the growth medium.
Media plates were prepared by adding to standard Luria Broth Agar, per liter of Luria Broth Agar, 2,000 μl of 100 mg/ml Ampicillin, 800 μl of 34 mg/ml Chloramrphenicol, 1 ml 1M IPTG. Similarly, indicator media was prepared by adding Bluogal (Life Technologies Inc.) to the media, 16.8 ml Bluogal stock (2% in dimethyl formamide) per liter of Luria Broth Agar. […] The E. coli strains were then plated onto the indicator media and allowed to grow for about 16 hours.

The test system of test [2] is HIV-PR variants expressing the resistance-conferring mutations V82T or I84V. Put plainly: Colony color assay with site directed HIV-PR variants of known genotype. The following applies: plate with indinavir (MK-639) and Bluogal; only colonies with V82T or I84V variants were white; whiter with V82T and I84V than with V82T. In kind it is cell-based. As for the experimental part:
Site directed mutagensis was used to construct HIV-PR gene variants encoding the mutations 1) [D25E] […] These variant genes were put into fusion protein expression plasmids in the manner set forth in Example 1, and the resulting fusion protein expression plasmids and a β-galactosidase reporter plasmid expression were subcloned into E. coli, which were then plated on indicator media designed to report E. coli having HIV-PR activity as white colonies and E. coli without HIV-PR activity as blue colonies.
In the method of the present invention, β-galactosidase activity is regulated indirectly by activity of the HIV-PR in the fusion protein expression plasmid. All the E. coli cells used were identical and expressed similar HIV-PR-LacI fusion proteins, except that the HIV-PR genotype is different for different colonies.

Consider `CC(C)(C)NC(=O)[C@@H]1CN(Cc2cccnc2)CCN1C[C@@H](O)C[C@@H](Cc1ccccc1)C(=O)N[C@H]1c2ccccc2C[C@H]1O` [indinavir], for which the “color of E. coli colonies on indicator media” value in test [1] is “blue”. In addition, in test [2], the “color of E. coli colonies on plate with indinavir and color indicator” value is “white”.
